Compound	glass transition temperature [°C]
*/C=C(/*)c1ccc(-n2c(=O)c3cc4c(=O)n(-c5ccc(C#C)cc5)c(=O)c4cc3c2=O)cc1 (repeat unit)	420.00
*C(=O)Nc1ccc(Oc2cccc(Oc3ccc(NC(=O)c4ccc5c(c4)C(=O)N(c4ccc(Oc6ccc(C7(c8ccc(Oc9ccc(N%10C(=O)c%11ccc(*)cc%11C%10=O)cc9)cc8)NC(=O)c8ccccc87)cc6)cc4)C5=O)cc3)c2)cc1 (repeat unit)	288.00
*C(=O)Nc1ccc(Oc2cccc3c(NC(=O)c4ccc5c(c4)C(=O)N(c4ccc(Oc6cccc7c(N8C(=O)c9ccc(*)cc9C8=O)cccc67)cc4)C5=O)cccc23)cc1 (repeat unit)	276.00
*C(=O)Nc1ccc(Oc2ccccc2-c2ccccc2Oc2ccc(NC(=O)c3ccc4c(c3)C(=O)N(c3ccc(Oc5ccc(-c6ccc(Oc7ccc(N8C(=O)c9ccc(*)cc9C8=O)cc7)cc6)cc5)cc3)C4=O)cc2)cc1 (repeat unit)	239.00
*C(=O)Nc1ccc(Oc2ccccc2-c2ccccc2Oc2ccc(NC(=O)c3ccc4c(c3)C(=O)N(c3ccc(Oc5ccc(N6C(=O)c7ccc(*)cc7C6=O)cc5)cc3)C4=O)cc2)cc1 (repeat unit)	239.00
*C(=O)Nc1ccc(S(=O)(=O)c2ccc(NC(=O)c3ccc4c(c3)C(=O)N(c3ccc(S(=O)(=O)c5ccc(N6C(=O)c7ccc(*)cc7C6=O)cc5)cc3)C4=O)cc2)cc1 (repeat unit)	307.00
*C(=O)Nc1ccc(S(=O)(=O)c2ccc(NC(=O)c3ccc4c(c3)C(=O)N(c3cccc(P(=O)(c5ccccc5)c5cccc(N6C(=O)c7ccc(*)cc7C6=O)c5)c3)C4=O)cc2)cc1 (repeat unit)	241.00
*C(=O)Nc1cccc(NC(=O)c2ccc(-c3nc4cc(*)ccc4[nH]3)cc2)c1 (repeat unit)	325.00
*C(=O)Nc1cccc(NC(=O)c2ccc3c(c2)C(=O)N(c2ccc(-c4sc(-c5ccc(N6C(=O)c7ccc(*)cc7C6=O)cc5)c(-c5ccccc5)c4-c4ccccc4)cc2)C3=O)c1 (repeat unit)	334.00
*C(=O)Nc1cccc(P(=O)(c2ccccc2)c2cccc(NC(=O)c3ccc4c(c3)C(=O)N(c3cccc(P(=O)(c5ccccc5)c5cccc(N6C(=O)c7ccc(*)cc7C6=O)c5)c3)C4=O)c2)c1 (repeat unit)	206.00
*C(=O)c1ccc(N(*)CCC)cc1 (repeat unit)	136.00
*C(=O)c1ccc(N(*)CCCC)cc1 (repeat unit)	124.00
*C(=O)c1ccc2c(c1)C(=O)N(c1ccc(C(=O)Nc3cccc(N4C(=O)c5ccc(*)cc5C4=O)c3)cc1)C2=O (repeat unit)	311.00
*C(=O)c1ccc2c(c1)C(=O)N(c1ccc(C(=O)c3ccc(Cc4ccc(C(=O)c5ccc(N6C(=O)c7ccc(*)cc7C6=O)cc5)cc4)cc3)cc1)C2=O (repeat unit)	285.50
*C(=O)c1ccc2c(c1)C(=O)N(c1ccc(S(=O)(=O)c3ccc(NC(=O)c4cccc(C(=O)Nc5ccc(S(=O)(=O)c6ccc(N7C(=O)c8ccc(*)cc8C7=O)cc6)cc5)c4)cc3)cc1)C2=O (repeat unit)	226.00
*C(=O)c1ccc2c(c1)C(=O)N(c1cccc(C(=O)Nc3cccc(N4C(=O)c5ccc(*)cc5C4=O)c3)c1)C2=O (repeat unit)	287.00
*C(=O)c1ccc2c(c1)C(=O)N(c1cccc(NC(=O)c3cccc(C(=O)Nc4cccc(N5C(=O)c6ccc(*)cc6C5=O)c4)c3)c1)C2=O (repeat unit)	204.00
*CCOCCOCCOc1cccc(NC(=O)c2ccc(C(=O)Nc3cccc(O*)c3)cc2)c1 (repeat unit)	116.00
*Nc1ccc(*)cc1OCCCCCCCCCCCCCCCC (repeat unit)	92.00

Compound	glass transition temperature [°C]
*Nc1cccc(NC(=O)c2cccc(C(*)=O)c2)c1 (repeat unit)	275.00
*Nc1cccc2c(NC(=O)c3cccc(C(*)=O)c3)cccc12 (repeat unit)	325.00
*Nc1cnc(*)s1 (repeat unit)	139.00
*[O][Sn]([CH2]CCC)([CH2]CCC)[O]C(=O)/C=C/C(*)=O (repeat unit)	186.00
*Oc1cc(OC(=O)c2ccc(OC)cc2)c(OC(=O)CCCC(*)=O)cc1OC(=O)c1ccc(OC)cc1 (repeat unit)	88.00
*Oc1cc(OC(=O)c2ccc(OC)cc2)c(OC(=O)CCCCCCCCCCCCCCC(*)=O)cc1OC(=O)c1ccc(OC)cc1 (repeat unit)	33.00
*Oc1cc(OC(=O)c2ccc(OCC)cc2)c(OC(=O)CCCCCCCCCCCCCCC(*)=O)cc1OC(=O)c1ccc(OCC)cc1 (repeat unit)	31.00
*Oc1cc(OC(=O)c2ccc(OCCCC)cc2)c(OC(=O)CCCCCCCC(*)=O)cc1OC(=O)c1ccc(OCCCC)cc1 (repeat unit)	38.00
*Oc1ccc(C(=O)c2cccc(NC(=O)c3ccc(C(=O)Nc4cccc(C(=O)c5ccc(*)cc5)c4)cc3)c2)cc1 (repeat unit)	189.00
*Oc1ccc(C(c2ccc(Oc3ccc(C(=O)c4ccc(C(c5ccc(C(=O)c6ccc(*)cc6)cc5)(C(F)(F)F)C(F)(F)F)cc4)cc3)cc2)(C(F)(F)F)C(F)(F)F)cc1 (repeat unit)	185.00
*Sc1ccc(C(=O)c2ccc(C(c3ccc(C(=O)c4ccc(*)cc4)cc3)(C(F)(F)F)C(F)(F)F)cc2)cc1 (repeat unit)	175.00
*Sc1ccc(Nc2ccc(Nc3ccc(*)cc3)cc2)cc1 (repeat unit)	114.00
*c1ccc(-c2cc(-c3ccc(-c4ccccc4)cc3)cc(-c3ccc(N4C(=O)c5ccc(NC(=O)Nc6cccc7c(NC(=O)Nc8ccc9c(c8)C(=O)N(*)C9=O)cccc67)cc5C4=O)cc3)n2)cc1 (repeat unit)	254.00
*c1ccc(C(=O)Nc2cccc(-n3c(=O)c4cc5c(=O)n(*)c(=O)c5cc4c3=O)c2)cc1 (repeat unit)	390.00
*c1ccc(C(=O)Nc2cccc(Oc3ccc(S(=O)(=O)c4ccc(Oc5cccc(NC(=O)c6ccc(N7C(=O)c8ccc(-c9cccc%10c9C(=O)N(*)C%10=O)cc8C7=O)cc6)c5)cc4)cc3)c2)cc1 (repeat unit)	241.00
*c1ccc(NC(=O)c2cccc(C(=O)Nc3ccc(S(*)(=O)=O)cc3)c2)cc1 (repeat unit)	78.00
*c1ccc(Oc2cccc(NC(=O)c3cc(C(=O)Nc4cccc(Oc5ccc(-c6nnc(*)o6)cc5)c4)cc(N4C(=O)c5ccccc5C4=O)c3)c2)cc1 (repeat unit)	245.00
*c1ccc2c(c1)C(=O)N(c1cccc(C(=O)Nc3ccc(Oc4ccccc4Oc4ccc(NC(=O)c5cccc(N6C(=O)c7ccc(C(*)(C(F)(F)F)C(F)(F)F)cc7C6=O)c5)cc4)cc3)c1)C2=O (repeat unit)	265.00
*c1cccc(NC(=O)c2ccc(OCCOCCOCCOCCOc3ccc(C(=O)Nc4ccc5[nH]c(*)nc5c4)cc3)cc2)c1 (repeat unit)	155.00

Other lines, results leading:

glass transition temperature [°C]	Compound
229.00	*C(=O)Nc1ccc(Oc2ccccc2-c2ccccc2Oc2ccc(NC(=O)c3ccc4c(c3)C(=O)N(c3ccc(Oc5cccc(Oc6ccc(N7C(=O)c8ccc(*)cc8C7=O)cc6)c5)cc3)C4=O)cc2)cc1 (repeat unit)
284.00	*C(=O)Nc1ccc(Sc2ccc(NC(=O)c3ccc4c(c3)C(=O)N(c3ccc(Oc5ccc(N6C(=O)c7ccc(*)cc7C6=O)cc5)cc3)C4=O)cc2)cc1 (repeat unit)
311.00	*C(=O)Nc1cccc(NC(=O)c2ccc3c(c2)C(=O)N(c2ccc(S(=O)(=O)c4ccc(N5C(=O)c6ccc(*)cc6C5=O)cc4)cc2)C3=O)c1 (repeat unit)
299.00	*C(=O)Nc1cccc2c(NC(=O)c3ccc4c(c3)C(=O)N(c3ccc(Oc5cccc6c(N7C(=O)c8ccc(*)cc8C7=O)cccc56)cc3)C4=O)cccc12 (repeat unit)
277.00	*Nc1cccc(NC(=O)c2cc(C(*)=O)cc(S(=O)(=O)c3ccccc3)c2)c1 (repeat unit)
169.00	*OC1C(C)(C)C(OC(=O)C2CCC(C(*)=O)CC2)C1(C)C (repeat unit)
72.00	*Oc1cc(OC(=O)c2ccc(OCCC)cc2)c(OC(=O)CCCC(*)=O)cc1OC(=O)c1ccc(OCCC)cc1 (repeat unit)
59.00	*Oc1cc(OC(=O)c2ccc(OCCCC)cc2)c(OC(=O)CCCC(*)=O)cc1OC(=O)c1ccc(OCCCC)cc1 (repeat unit)
23.00	*Oc1cc(OC(=O)c2ccc(OCCCCCCCCCCCC)cc2)c(OC(=O)CCCC(*)=O)cc1OC(=O)c1ccc(OCCCCCCCCCCCC)cc1 (repeat unit)
157.00	*Oc1ccc(C(=O)c2ccc(C(=O)c3ccc(*)cc3)cc2)cc1 (repeat unit)
191.00	*Oc1ccc(C(=O)c2cccc(NC(=O)c3cccc(C(=O)Nc4cccc(C(=O)c5ccc(*)cc5)c4)c3)c2)cc1 (repeat unit)
210.00	*Oc1ccc(Oc2ccc(C(=O)c3cccc(NC(=O)c4ccc(C(=O)Nc5cccc(C(=O)c6ccc(*)cc6)c5)cc4)c3)cc2)cc1 (repeat unit)
256.00	*c1ccc(C(=O)Nc2cccc(S(=O)(=O)c3cccc(NC(=O)c4ccc(N5C(=O)c6ccc(-c7ccc8c(c7)C(=O)N(*)C8=O)cc6C5=O)cc4)c3)c2)cc1 (repeat unit)
307.00	*c1ccc(NC(=O)c2cc(C(=O)Nc3ccc(S(*)(=O)=O)cc3)cc(S(=O)(=O)c3ccccc3)c2)cc1 (repeat unit)
281.00	*c1ccc2c(c1)C(=O)N(c1ccc(C(=O)Nc3ccc(Oc4ccccc4Oc4ccc(NC(=O)c5ccc(N6C(=O)c7ccc(C(*)(C(F)(F)F)C(F)(F)F)cc7C6=O)cc5)cc4)cc3)cc1)C2=O (repeat unit)
180.00	*c1cccc(NC(=O)c2ccc(OCCOCCOCCOc3ccc(C(=O)Nc4ccc5[nH]c(*)nc5c4)cc3)cc2)c1 (repeat unit)
215.00	*c1cccc(NC(=O)c2ccc(OCCOCCOc3ccc(C(=O)Nc4ccc5[nH]c(*)nc5c4)cc3)cc2)c1 (repeat unit)

— the PolyMetriX glass transition set
